From patent US20210386788A1, “ER TUNABLE PROTEIN REGULATION” (Obsidian Therapeutics, Inc., priority 2018, published 2021)
Several values for one entry are separate records, joined by “and”; a condition that tells them apart may be missing. Equal values may be shown once. Read-outs that look alike come from different tables or passages of the source.

Legend:
primary human T cells = assay: IL12 (p70) in lentivirus transduced primary human T cells, Bazedoxifene dose response (MSD assay); assay type: cell-based
Method: Primary human T cells were expanded with CD3/CD28 Dynabeads, transduced with lentivirus constructs and expanded for 10 days. Beads were removed and cells were frozen. T cells were later thawed and 100,000 cells were treated overnight with different doses of Bazedoxifene (BZD). Transduction efficiency was assessed by flow cytometry using CD19-Fc staining. The response of IL12 in CD19 CAR-IL12 tandem constructs to increasing concentrations of ligand was measured using OT-001736 construct with increasing doses of BZD starting at 0.01 nM to up to 3 μM for 23 hours. IL12 levels were measured using MSD assay. Controls tested in the experiment included OT-001357, which constitutively expresses IL12 and OT-001407, which is not expected to show any IL12 expression.
Additional ER mutants were tested in primary human T cells as described above, except T cells were treated on day 9 of expansion, and not frozen and thawed prior to the experiment (Table 15).

[1] = Pharmacokinetics of Bazedoxifene in CD-1 mice (plasma, LC-MS-MS); assay type: in vivo; design: Plasma Bazedoxifene Concentrations: unit not given here
[2] = 3 mg intravenous (IV); cited from earlier work

**Q.** With `Cc1c(-c2ccc(O)cc2)n(Cc2ccc(OCCN3CCCCCC3)cc2)c2ccc(O)cc12` [Bazedoxifene] as the molecule, how does the EC50 (primary human T cells; T-cell, BZD dose response in primary human T cells expressing OT-001736, read-out: EC50 of IL12 induction) read?
**A.** 200 nM

**Q.** What about the “lowest BZD concentration that induced IL12 expression” value (primary human T cells; primary human T cells expressing OT-001736) of the same molecule?
**A.** 0.05 µM

**Q.** And the “Plasma Bazedoxifene Concentrations” value ([1]; 10 mg/kg single dose, 0.25 hours post dose, free and bound combined, individual animals)?
**A.** 0.062 and 0.127 and 0.287

**Q.** What about the “Plasma Bazedoxifene Concentrations” value ([1]; 10 mg/kg single dose, 0.5 hours post dose, free and bound combined, individual animals) of the same molecule?
**A.** 0.050 and 0.091

**Q.** What about the “Plasma Bazedoxifene Concentrations” value ([1]; 10 mg/kg single dose, 1 hours post dose, free and bound combined, individual animals) of the same molecule?
**A.** 0.089 and 0.105

**Q.** What about the “Plasma Bazedoxifene Concentrations” value ([1]; 10 mg/kg single dose, 2 hours post dose, free and bound combined, individual animals) of the same molecule?
**A.** 0.096 and 0.107

**Q.** And the “Plasma Bazedoxifene Concentrations” value ([1]; 10 mg/kg single dose, 4 hours post dose, free and bound combined, individual animals)?
**A.** 0.053 and 0.055

**Q.** And the “Plasma Bazedoxifene Concentrations” value ([1]; 10 mg/kg single dose, 7 hours post dose, free and bound combined, individual animals)?
**A.** 0.036 and 0.035

**Q.** And the “Plasma Bazedoxifene Concentrations” value ([1]; 10 mg/kg single dose, 10 hours post dose, free and bound combined, individual animals)?
**A.** 0.033 and 0.028 and 0.016

**Q.** And the “Plasma Bazedoxifene Concentrations” value ([1]; 10 mg/kg single dose, 24 hours post dose, free and bound combined, individual animals)?
**A.** 0.005 and 0.003 and 0.004

**Q.** And the “Plasma Bazedoxifene Concentrations” value ([1]; 100 mg/kg single dose, 0.25 hours post dose, free and bound combined, individual animals)?
**A.** 1.268 and 0.949 and 2.590

**Q.** What about the “Plasma Bazedoxifene Concentrations” value ([1]; 100 mg/kg single dose, 0.5 hours post dose, free and bound combined, individual animals) of the same molecule?
**A.** 2.113 and 2.208 and 4.544

**Q.** What about the “Plasma Bazedoxifene Concentrations” value ([1]; 100 mg/kg single dose, 1 hours post dose, free and bound combined, individual animals) of the same molecule?
**A.** 2.590 and 5.138

**Q.** And the “Plasma Bazedoxifene Concentrations” value ([1]; 100 mg/kg single dose, 2 hours post dose, free and bound combined, individual animals)?
**A.** 2.272 and 4.161

**Q.** What about the “Plasma Bazedoxifene Concentrations” value ([1]; 100 mg/kg single dose, 4 hours post dose, free and bound combined, individual animals) of the same molecule?
**A.** 1.208 and 1.902

**Q.** What about the “Plasma Bazedoxifene Concentrations” value ([1]; 100 mg/kg single dose, 7 hours post dose, free and bound combined, individual animals) of the same molecule?
**A.** 0.894 and 0.463 and 0.970

**Q.** And the “Plasma Bazedoxifene Concentrations” value ([1]; 100 mg/kg single dose, 10 hours post dose, free and bound combined, individual animals)?
**A.** 0.754 and 0.497 and 0.713

**Q.** What about the “Plasma Bazedoxifene Concentrations” value ([1]; 100 mg/kg single dose, 24 hours post dose, free and bound combined, individual animals) of the same molecule?
**A.** 0.023 and 0.179 and 0.025

**Q.** What about the “Plasma Bazedoxifene Concentrations” value ([1]; 200 mg/kg single dose, 0.25 hours post dose, free and bound combined, individual animals) of the same molecule?
**A.** 1.495 and 1.013

**Q.** And the “Plasma Bazedoxifene Concentrations” value ([1]; 200 mg/kg single dose, 0.5 hours post dose, free and bound combined, individual animals)?
**A.** 2.314 and 1.707

**Q.** And the “Plasma Bazedoxifene Concentrations” value ([1]; 200 mg/kg single dose, 1 hours post dose, free and bound combined, individual animals)?
**A.** 3.397 and 4.013

**Q.** And the “Plasma Bazedoxifene Concentrations” value ([1]; 200 mg/kg single dose, 2 hours post dose, free and bound combined, individual animals)?
**A.** 2.590 and 3.567

**Q.** And the “Plasma Bazedoxifene Concentrations” value ([1]; 200 mg/kg single dose, 4 hours post dose, free and bound combined, individual animals)?
**A.** 1.327 and 2.357

**Q.** And the “Plasma Bazedoxifene Concentrations” value ([1]; 200 mg/kg single dose, 7 hours post dose, free and bound combined, individual animals)?
**A.** 0.866 and 0.726 and 1.189

**Q.** And the “Plasma Bazedoxifene Concentrations” value ([1]; 200 mg/kg single dose, 10 hours post dose, free and bound combined, individual animals)?
**A.** 0.699 and 0.732 and 0.715

**Q.** What about the “Plasma Bazedoxifene Concentrations” value ([1]; 200 mg/kg single dose, 24 hours post dose, free and bound combined, individual animals) of the same molecule?
**A.** 0.297 and 0.314 and 0.180

**Q.** What about the concentration at 0.5 h ([1]; CD-1, mouse, plasma, oral, 10 mg/kg, 10 mg/kg single dose, 0.5 hours post dose, free and bound combined, individual animals, read-out: Plasma Bazedoxifene Concentrations) of the same molecule?
**A.** 71 nM

**Q.** What about the concentration at 1 h ([1]; CD-1, mouse, plasma, oral, 10 mg/kg, 10 mg/kg single dose, 1 hours post dose, free and bound combined, individual animals, read-out: Plasma Bazedoxifene Concentrations) of the same molecule?
**A.** 97 nM

**Q.** And the concentration at 2 h ([1]; CD-1, mouse, plasma, oral, 10 mg/kg, 10 mg/kg single dose, 2 hours post dose, free and bound combined, individual animals, read-out: Plasma Bazedoxifene Concentrations)?
**A.** 77 nM

**Q.** What about the concentration at 4 h ([1]; CD-1, mouse, plasma, oral, 10 mg/kg, 10 mg/kg single dose, 4 hours post dose, free and bound combined, individual animals, read-out: Plasma Bazedoxifene Concentrations) of the same molecule?
**A.** 49 nM

**Q.** And the concentration at 7 h ([1]; CD-1, mouse, plasma, oral, 10 mg/kg, 10 mg/kg single dose, 7 hours post dose, free and bound combined, individual animals, read-out: Plasma Bazedoxifene Concentrations)?
**A.** 34 nM

**Q.** And the concentration at 1 h ([1]; CD-1, mouse, plasma, oral, 100 mg/kg, 100 mg/kg single dose, 1 hours post dose, free and bound combined, individual animals, read-out: Plasma Bazedoxifene Concentrations)?
**A.** 3590 nM

**Q.** And the concentration at 2 h ([1]; CD-1, mouse, plasma, oral, 100 mg/kg, 100 mg/kg single dose, 2 hours post dose, free and bound combined, individual animals, read-out: Plasma Bazedoxifene Concentrations)?
**A.** 2820 nM

**Q.** And the concentration at 4 h ([1]; CD-1, mouse, plasma, oral, 100 mg/kg, 100 mg/kg single dose, 4 hours post dose, free and bound combined, individual animals, read-out: Plasma Bazedoxifene Concentrations)?
**A.** 1380 nM

**Q.** What about the concentration at 0.25 h ([1]; CD-1, mouse, plasma, oral, 200 mg/kg, 200 mg/kg single dose, 0.25 hours post dose, free and bound combined, individual animals, read-out: Plasma Bazedoxifene Concentrations) of the same molecule?
**A.** 1060 nM

**Q.** What about the concentration at 0.5 h ([1]; CD-1, mouse, plasma, oral, 200 mg/kg, 200 mg/kg single dose, 0.5 hours post dose, free and bound combined, individual animals, read-out: Plasma Bazedoxifene Concentrations) of the same molecule?
**A.** 1510 nM

**Q.** What about the concentration at 1 h ([1]; CD-1, mouse, plasma, oral, 200 mg/kg, 200 mg/kg single dose, 1 hours post dose, free and bound combined, individual animals, read-out: Plasma Bazedoxifene Concentrations) of the same molecule?
**A.** 2400 nM

**Q.** And the concentration at 2 h ([1]; CD-1, mouse, plasma, oral, 200 mg/kg, 200 mg/kg single dose, 2 hours post dose, free and bound combined, individual animals, read-out: Plasma Bazedoxifene Concentrations)?
**A.** 3270 nM

**Q.** What about the concentration at 4 h ([1]; CD-1, mouse, plasma, oral, 200 mg/kg, 200 mg/kg single dose, 4 hours post dose, free and bound combined, individual animals, read-out: Plasma Bazedoxifene Concentrations) of the same molecule?
**A.** 1580 nM

**Q.** And the Cmax ([1]; CD-1, mouse, plasma, dose of 200 mg/kg per os (PO), read-out: Murine Cmax)?
**A.** ~3000 nM

**Q.** What about the Cmax [2] of the same molecule?
**A.** ~100 nM
